The conditions of data set [1]: Crystal.
Data set [2] is described as follows: Molar enthalpy of transition or fusion. Particulars: Crystal; DSC.

Experimental findings from the NIST ThermoML archive (doi:10.1016/j.tca.2015.12.010) are described below.

Numbers after ± are expanded uncertainties.

For `OC[C@@H](O)[C@@H](O)[C@H](O)[C@H](O)CO` [D-mannitol], the Normal melting temperature in data set [1] (DTA) turned out to be 167.10 ± 2.1 °C; in data set [1] (Infrared thermography), 166.00 ± 10 °C. Besides, the “Molar enthalpy of transition or fusion” value in data set [2] was 13.8 ± 0.359 kcal/mol.

With `OC[C@@H](O)[C@@H](O)[C@@H](O)CO` [SRS-1,2,3,4,5-pentanepentol], the Normal melting temperature amounted to 100.00 ± 1.1 °C in data set [1] (DTA) and 101.60 ± 10 °C in data set [1] (Infrared thermography). Also, in data set [2], the “Molar enthalpy of transition or fusion” value amounted to 8.44 ± 0.217 kcal/mol.

For `OC[C@@H](O)[C@H](O)[C@H](O)[C@@H](O)CO` [dulcitol], the Normal melting temperature was 187.30 ± 0.5 °C in data set [1] (DTA) and 189.50 ± 10 °C in data set [1] (Infrared thermography). In data set [2], the “Molar enthalpy of transition or fusion” value was determined as 15.5 ± 0.382 kcal/mol.

Consider `OC[C@@H](O)[C@@H](O)CO` [meso-1,2,3,4-butanetetrol], for which the Normal melting temperature was determined as 118.90 ± 1.1 °C in data set [1] (DTA) and 121.20 ± 10 °C in data set [1] (Infrared thermography). The “Molar enthalpy of transition or fusion” value in data set [2] turned out to be 9.92 ± 0.263 kcal/mol.

In the case of `OC[C@@H](O)[C@H](O)[C@@H](O)CO` [xylitol], the Normal melting temperature amounted to 95.10 ± 1.1 °C in data set [1] (DTA) and 99.00 ± 10 °C in data set [1] (Infrared thermography). Also, in data set [2], the “Molar enthalpy of transition or fusion” value amounted to 9.13 ± 0.263 kcal/mol.
